These results are taken from patent US8557796B2, “Substituted 1-oxa-2,8-diaza-spiro [4,5] dec-2-ene derivatives and related treatment methods” (Gruenenthal GmbH, priority 2001, dated 2013).

For the test, the system named is batrachotoxin (BTX) binding site (binding site 2) of the sodium channel. Briefly: Bond test on the sodium channel, binding site 2 (BTX bond), [3H]-batrachotoxinin A20 α-benzoate displacement. To be noted: rat cerebrocortex synaptosomes.

On to `O=C(NCC1COc2ccccc2O1)C1=NOC2(CCN(S(=O)(=O)c3ccc(Cl)s3)CC2)C1` (centres unmarked) [Example 194, 8-(5-chloro-thiophene-2-sulphonyl)-1-oxa-2,8-diaza-spiro[4,5]dec-2-ene-3-carboxylic acid (2,3-dihydro-benzo[1,4]dioxin-2-ylmethyl)-amide], for which the “BTX bond, 10 μM, % inhibition” value was 68%. Same read-out and setting: to `O=C(C1=NOC2(CCN(S(=O)(=O)c3ccc(F)cc3)CC2)C1)N1CCN(C2CCCCCC2)CC1` [Example 218] belongs 79%; to `O=C(NC1CCCC1)C1=NOC2(CCN(C(=O)c3ccccc3COC(=O)c3ccccc3)CC2)C1` [Example 188], 77%. As for `O=C(NCc1cccs1)C1=NOC2(CCN(C(=O)CCCOc3ccccc3)CC2)C1` [Example 183], the “BTX bond, 10 μM, % inhibition” value was found to be 68%. For the compound `O=C(C1=NOC2(CCN(S(=O)(=O)c3cccc(C(F)(F)F)c3)CC2)C1)N1CCN(c2cc(C(F)(F)F)ccn2)CC1` [Example 119], the “BTX bond, 10 μM, % inhibition” value was 72%. Regarding `CCOC(=O)C1CCCCN1C(=O)C1=NOC2(CCN(S(=O)(=O)c3ccc(Cl)s3)CC2)C1` (centres unmarked) [Example 155, 1-[8-(5-chloro-thiophene-2-sulphonyl)-1-oxa-2,8-diaza-spiro[4,5]dec-2-ene-3-carbonyl]-piperidine-2-carboxylic acid ethyl ester], the “BTX bond, 10 μM, % inhibition” value is 48%. Consider `COC(=O)C(Cc1c[nH]c2ccccc12)NC(=O)C1=NOC2(CCN(S(=O)(=O)c3ccc(OC(F)(F)F)cc3)CC2)C1` (centres unmarked) [Example 1, 3-(1H-indo1-3-yl)-2-{[8-(4-trifluoromethoxy-benzene-sulphonyl)-1-oxa-2,8-diaza-spiro[4,5]dec-2-ene-3-carbonyl]-amino}-propionic acid methyl ester], for which the “BTX bond, 10 μM, % inhibition” value is given as 68%. On to `CN(C)S(=O)(=O)N1CCC2(CC1)CC(C(=O)NC1CCCC1OCc1ccccc1)=NO2` (centres unmarked) [Example 163, 8-dimethylsulphamoyl-1-oxa-2,8-diaza-spiro[4,5]dec-2-ene-3-acarboxylic cid (2-benzyloxy-cyclopentyl)-amide], for which the “BTX bond, 10 μM, % inhibition” value stood at 40%. On to `Cc1ccc(S(=O)(=O)N2CCC3(CC2)CC(C(=O)N2CCN(c4ccc(C)cc4C)CC2)=NO3)cc1` [Example 33, [4-(2,4-dimethyl-phenyl)-piperazin-l-yl]-[8-(toluene-4-sulphonyl)-1-oxa-2,8-diazaspiro[4,5]dec-2-en-3-yl]methanone], for which the “BTX bond, 10 μM, % inhibition” value was determined as 67%.

In the case of `O=C(NCCc1cccc(C(F)(F)F)c1)C1=NOC2(CCN(S(=O)(=O)c3ccc(F)cc3)CC2)C1` [Example 196], the “BTX bond, 10 μM, % inhibition” value is recorded as 51%. For `CN(C)S(=O)(=O)N1CCC2(CC1)CC(C(=O)N1CCN(Cc3ccc4ccccc4c3)CC1)=NO2` [Example 65, 3-(4-naphthalen-2-ylmethyl-piperazine-1-carbonyl)-1-oxa-2,8-diaza-spiro[4,5]dec-2-ene-8-sulphonic acid dimethylamide], the “BTX bond, 10 μM, % inhibition” value is 67%. As to `CC(NC(=O)C1=NOC2(CCN(S(=O)(=O)c3cccs3)CC2)C1)c1ccccc1` (centres unmarked) [Example 8, 8-(thiophene-2-sulphonyl)-1-oxa-2,8-diaza-spiro[4,5]dec-2-ene-3-carboxylic acid (1-phenyl-ethyl)-amide], the “BTX bond, 10 μM, % inhibition” value came out at 63%. For `O=C(C1=NOC2(CCN(S(=O)(=O)c3cccs3)CC2)C1)N1CCN(CCCc2ccccc2)CC1` [Example 14, [4-(3-phenyl-propyl)-piperazin-l-yl]-[8-(thiophene-2-sulphonyl)-1-oxa-2,8-diaza-spiro[4,5]dec-2-en-3-yl]-methanone], the “BTX bond, 10 μM, % inhibition” value was determined as 79%. For the compound `COc1ccc(S(=O)(=O)N2CCC3(CC2)CC(C(=O)NC2CCCC2OCc2ccccc2)=NO3)cc1` (centres unmarked) [Example 169, 8-(4-methoxy-benzenesulphonyl)-1-oxa-2,8-diaza-spiro[4,5]dec-2-ene-3-carboxylic acid (2-benzyloxy-cyclopentyl)-amide], for the setting “10 µM”, the “BTX bond, 10 μM, % inhibition” value stood at 48%. On to `O=C(C1=NOC2(CCN(S(=O)(=O)c3cc(Cl)ccc3Cl)CC2)C1)N1CCN(Cc2ccccc2)CC1` [Example 209, (4-benzyl-piperazin-l-yl)-[8-(2,5-dichloro-benzenesulphonyl)-1-oxa-2,8-diaza-spiro[4,5]dec-2-en-3-yl]-methanone], for which the “BTX bond, 10 μM, % inhibition” value was found to be 61%. In the case of `O=C(NCc1ccccc1)C1=NOC2(CCN(C(=O)c3ccncc3)CC2)C1` [Example 102, 8-(pyridine-4-carbonyl)-1-oxa-2,8-diaza-spiro[4,5]dec-2-ene-3-carboxylic acid benzylamide], the “BTX bond, 10 μM, % inhibition” value was determined as 43%.

With `O=C(NCc1cccs1)C1=NOC2(CCN(C(=O)c3cccc4ccccc34)CC2)C1` [Example 192, 8-(naphthalene-1-carbonyl)-1-oxa-2,8-diaza-spiro[4,5]dec-2-ene-3-carboxylic acid (thiophen-2-ylmethyl)-amide], the “BTX bond, 10 μM, % inhibition” value was found to be 87%. Take `CN(C)S(=O)(=O)N1CCC2(CC1)CC(C(=O)N1CCN(Cc3ccc(C(C)(C)C)cc3)CC1)=NO2` [Example 189, 3-[4-(4-tert-butyl-benzyl)-piperazine-1-carbonyl]-1-oxa-2,8-diaza-spiro[4,5]dec-2-ene-8-sulphonic acid dimethylamide]: the “BTX bond, 10 μM, % inhibition” value is reported as 69%. Regarding `CCOC(=O)C1CCCCN1C(=O)C1=NOC2(CCN(C(=O)c3cc(C(C)(C)C)oc3C)CC2)C1` (centres unmarked) [Example 179, 1-[8-(5-tert-butyl-2-methyl-furan-3-carbonyl)-1-oxa-2,8-diaza-spiro[4,5]dec-2-ene-3-carbonyl]-piperidine-2-carboxylic acid ethyl ester], the “BTX bond, 10 μM, % inhibition” value amounted to 55%.

Regarding `O=C(NC1CCCC1OCc1ccccc1)C1=NOC2(CCN(S(=O)(=O)c3cccs3)CC2)C1` (centres unmarked) [Example 47, 8-(thiophene-2-sulphonyl)-1-oxa-2,8-diaza-spiro[4,5]dec-2-ene-3-carboxylic acid (2-benzyloxy-cyclopentyl)-amide], the “BTX bond, 10 μM, % inhibition” value was found to be 71%.

On to `CC1CCCCN1CCCNC(=O)C1=NOC2(CCN(S(=O)(=O)c3cc(Cl)ccc3Cl)CC2)C1` (centres unmarked) [Example 15, 8-(2,5-dichloro-benzenesulphonyl)-1-oxa-2,8-diaza-spiro[4,5]dec-2-ene-3-carboxylic acid[3-(2-methyl-piperidin-1-yl)-propyl]-amide], for which the “BTX bond, 10 μM, % inhibition” value is listed as 88%. On the same count and under the same terms, to `O=C(NC1CCN(Cc2ccc(C(F)(F)F)cc2)C1)C1=NOC2(CCN(S(=O)(=O)c3cccs3)CC2)C1` (centres unmarked) [Example 26, 8-(thiophene-2-sulphonyl)-1-oxa-2,8-diaza-spiro[4,5]dec-2-ene-3-carboxylic acid [1-(4-trifluoromethyl-benzyl)-pyrrolidin-3-yl]-amide] belongs 84%; to `O=C(C1=NOC2(CCN(S(=O)(=O)c3ccc(F)cc3)CC2)C1)N1CCN(CCCc2ccccc2)CC1` [Example 186, [8-(4-fluoro-benzenesulphonyl)-1-oxa-2,8-diaza-spiro[4,5]dec-2-en-3-yl]-[4-(3-phenyl-propyl)-piperazin-1-yl]-methanone], 56%; to `CCc1ccc(C(=O)N2CCC3(CC2)CC(C(=O)NCc2cccs2)=NO3)cc1` [Example 52, 8-(4-ethyl-benzoyl)-1-oxa-2,8-diaza-spiro[4,5]dec-2-ene-3-carboxylic acid (thiophen-2-ylmethyl)-amide], 63%. For `Cc1cc(C(=O)N2CCC3(CC2)CC(C(=O)NCC(C)C)=NO3)ccc1Br` [Example 88, 8-(4-bromo-3-methyl-benzoyl)-1-oxa-2,8-diaza-spiro[4,5]dec-2-ene-3-carboxylic acid isobutyl-amide], the “BTX bond, 10 μM, % inhibition” value turned out to be 45%.

`CN(CCc1c[nH]c2ccccc12)C(=O)C1=NOC2(CCN(S(=O)(=O)c3ccc(OC(F)(F)F)cc3)CC2)C1` [Example 16, 8-(4-trifluoromethoxy-benzenesulphonyl)-1-oxa-2,8-diaza-spiro[4,5]dec-2-ene-3 carboxylic acid [2-(1 H-indo1-3-yl)-ethyl]-methyl-amide]: the “BTX bond, 10 μM, % inhibition” value amounted to 60%.

As for `Cc1ccc(F)cc1S(=O)(=O)N1CCC2(CC1)CC(C(=O)NCCN(C)C)=NO2` [Example 37, 8-(5-fluoro-2-methyl-benzenesulphonyl)-1-oxa-2,8-diaza-spiro[4,5]dec-2-ene-3-carboxylic acid (2-dimethylamino-ethyl)-amide], the “BTX bond, 10 μM, % inhibition” value was found to be 70%. As to `O=C(NCc1ccccc1)C1=NOC2(CCN(S(=O)(=O)c3cccc(Cl)c3)CC2)C1` [Example 210, 8-(3-chloro-benzenesulphonyl)-1-oxa-2,8-diaza-spiro[4,5]dec-2-ene-3-carboxylic acid benzylamide], the “BTX bond, 10 μM, % inhibition” value is on record as 62%. For the compound `COc1ccc(OC)c(CN(Cc2ccco2)C(=O)C2=NOC3(CCN(S(=O)(=O)c4ccc(F)cc4)CC3)C2)c1` [Example 160], the “BTX bond, 10 μM, % inhibition” value came out at 75%.

With `CN(Cc1cccnc1)C(=O)C1=NOC2(CCN(S(=O)(=O)c3cc(Cl)ccc3Cl)CC2)C1` [Example 92, 8-(2,5-dichloro-benzenesulphonyl)-1-oxa-2,8-diaza-spiro[4,5]dec-2-ene-3-carboxylic acid methyl-pyridin-3-ylmethyl-amide], the “BTX bond, 10 μM, % inhibition” value was 65%. On to `O=C(NCc1ccccc1)C1=NOC2(CCN(C(=O)COCc3ccccc3)CC2)C1` [Example 171, 8-(2-benzyloxy-acetyl)-1-oxa-2,8-diaza-spiro[4,5]dec-2-ene-3-carboxylic acid benzylamide], for which the “BTX bond, 10 μM, % inhibition” value came out at 44%.

`O=C(NC(c1ccccc1)c1ccccc1)C1=NOC2(CCN(S(=O)(=O)c3ccc(Cl)s3)CC2)C1` [Example 40, 8-(5-chloro-thiophene-2-sulphonyl)-1-oxa-2,8-diaza-spiro[4,5]dec-2-ene-3 carboxylic acid benzhydryl-amide]: the “BTX bond, 10 μM, % inhibition” value amounted to 47%.
